This test has as its target HIF PHD2 (Homo sapiens, UniProt Q9GZT9). In words: PHD2 inhibition assay (TR-FRET, VCB-Eu detection of hydroxylated P564-HIF1α peptide). It counts as biochemical. The settings on record: 2 nM PHD2, 100 nM P564-HIF1α peptide, 0.25 μM 2-oxoglutarate, 100 μM FeCl2, pH 6, TR-FRET. On the procedure:
Inhibition of HIF PHD2 activity was quantified utilizing the TR-FRET technology. HIF PHD2 catalyzes a hydroxyl modification on the proline residue of the P564-HIF1α peptide substrate (Biotin-DLEMLAPYIPMDDDFQL (SEQ ID NO: 7)) resulting in recognition and binding of the europylated Von Hippel-Lindau protein (pVHL), elongin B and elongin C heterotrimeric (VCB-Eu) complex.
The PHD2 inhibition assay was executed by addition of freshly dissolved FeCl2 to 178.57 μM (100 μM final concentration) in PHD2 Reaction Buffer containing 30 mM MES, pH 6, 10 mM NaCl, 0.25% Brij-35, 0.01% BSA, and 1% DMSO. 28 μL of the iron solution and 2 μL of inhibitor compounds serially diluted in 100% DMSO (5% DMSO final) were added to black polypropylene 96-well microtiter plates. To that, 10 μL of 10 nM PHD2 (2 nM final) was added to all wells of the plate except for the 8 wells of column 12 (LO control), and allowed to incubate at room temperature on the shaker for one hour. Column 6 was the HI control containing PHD2 enzyme and 5% DMSO vehicle, but no inhibitor compound. To initiate the PHD2 enzymatic reaction, 10 μL of a solution containing 500 nM P564-HIF1α peptide (100 nM final), 10 mM ascorbic acid (2 mM final), and 1.25 μM 2-oxoglutarate (α-ketoglutarate; 0.25 μM final) in PHD2 Reaction Buffer was added to all wells of the plate and allowed to incubate on the shaker at room temperature for one hour.
The reaction was terminated by addition of 25 μL TR-FRET Buffer (50 mM TRIS-HCl, pH 9, 100 mM NaCl, 0.05% BSA, and 0.5% Tween-20) containing 150 mM succinate (product inhibitor; 50 mM final), 75 nM streptavidin-APC (25 nM final), and 7.5 nM VCB-Eu (2.5 nM final). The TR-FRET detection reagents were placed on a shaker for 1 hour to reach binding equilibrium before reading on the Discovery platform (PerkinElmer). Europium is excited at 315 nm and phosphoresces at 615 nm with a large Stoke's shift. APC, in turn, emits at 655 nm upon excitation at 615 nm. The TR-FRET signal is measured as the ratio of the APC 655 nm signal divided by the internal europium reference 615 nm emission signal.
The POC (percentage of control) was determined by comparing the signal from hydroxylated peptide substrate in the enzyme reaction containing inhibitor compound with that from PHD2 enzyme with DMSO vehicle alone (HI control), and no enzyme (LO control). POC was calculated using the formula: % control (POC)=(cpd−average LO)/(average HI−average LO)*100. Data (consisting of POC and inhibitor concentration in μM) was fitted to a 4-parameter equation (y=A+((B−A)/(1+((x/C)^D))), where A is the minimum y (POC) value, B is the maximum y (POC), C is the x (cpd concentration) at the point of inflection and D is the slope factor) using a Levenburg-Marquardt non-linear regression algorithm.
Chain of HIF PHD2 (Q9GZT9 whole entry): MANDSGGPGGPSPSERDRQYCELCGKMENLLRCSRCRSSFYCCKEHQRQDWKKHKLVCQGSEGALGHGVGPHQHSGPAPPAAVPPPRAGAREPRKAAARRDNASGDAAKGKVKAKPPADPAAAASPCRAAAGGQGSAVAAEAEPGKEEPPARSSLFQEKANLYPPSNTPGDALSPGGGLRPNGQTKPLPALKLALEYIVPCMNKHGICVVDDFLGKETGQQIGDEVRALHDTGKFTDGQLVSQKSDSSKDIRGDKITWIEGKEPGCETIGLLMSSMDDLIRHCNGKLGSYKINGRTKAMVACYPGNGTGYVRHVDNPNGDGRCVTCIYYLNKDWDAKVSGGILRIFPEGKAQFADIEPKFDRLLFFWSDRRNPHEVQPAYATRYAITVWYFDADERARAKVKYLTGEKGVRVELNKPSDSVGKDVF
`O=C(O)CNC(=O)C1=C(O)c2ccc(-c3ccccc3Cl)cc2C1=O` [Example 18, 2-(6-(2-chlorophenyl)-3-hydroxy-1-oxo-1H-indene-2-carboxamido)acetic acid] registered an IC50 of 3.6 nM. That is a single-digit nanomolar value.

Compound `O=C(O)CNC(=O)C1=C(O)c2c(Cl)ccc(Cl)c2C1=O` [Example 8, 2-(4,7-dichloro-3-hydroxy-1-oxo-1H-indene-2-carboxamido)acetic acid] registered an IC50 of 47.2 nM.

In turn, `O=C(O)CNC(=O)C1=C(O)c2c(cccc2-c2ccccc2Cl)C1=O` [Example 15, 2-(4-(2-chlorophenyl)-3-hydroxy-1-oxo-1H-indene-2-carboxamido)acetic acid] displayed an IC50 of 8.5 nM.

Turning to `O=C(O)CNC(=O)C1=C(O)c2ccc(-c3ccccc3)cc2C1=O` [Example 10, 2-(3-hydroxy-1-oxo-6-phenyl-1H-indene-2-carboxamido)acetic acid], the IC50 worked out at 11.6 nM.

For the compound `O=C(O)CNC(=O)C1=C(O)c2c(Cl)cccc2C1=O` [Example 4, 2-(4-chloro-3-hydroxy-1-oxo-1H-indene-2-carboxamido)acetic acid], the IC50 amounted to 9.5 nM. This IC50 and that of the compound before are within 1.5-fold of each other.

Compound `O=C(O)CNC(=O)C1=C(O)c2cc(C(F)(F)F)ccc2C1=O` [Example 3, 2-(3-hydroxy-1-oxo-5-(trifluoromethyl)-1H-indene-2-carboxamido)acetic acid] gave an IC50 of 13 nM.

As to `COc1ccccc1-c1cccc2c1C(=O)C(C(=O)NCC(=O)O)=C2O` [Example 16, 2-(3-hydroxy-7-(2-methoxyphenyl)-1-oxo-1H-indene-2-carboxamido)acetic acid], the IC50 was determined as 22.1 nM.

`COc1ccc(-c2ccc3c(c2)C(O)=C(C(=O)NCC(=O)O)C3=O)cc1` [Example 12, 2-(3-hydroxy-5-(4-methoxyphenyl)-1-oxo-1H-indene-2-carboxamido)acetic acid] came in with a half-maximal inhibitory concentration (IC50) of 22 nM.

The compound `COc1cccc(-c2cccc3c2C(=O)C(C(=O)NCC(=O)O)=C3O)c1` [Example 17, 2-(3-hydroxy-7-(3-methoxyphenyl)-1-oxo-1H-indene-2-carboxamido)acetic acid] registered an IC50 of 3 nM.

The compound `O=C(O)CNC(=O)C1=C(O)c2cc(Br)ccc2C1=O` [Example 2, 2-(5-bromo-3-hydroxy-1-oxo-1H-indene-2-carboxamido)acetic acid] displayed an IC50 of 20.6 nM.

Take `O=C(O)CNC(=O)C1=C(O)c2c(cccc2-c2ccc(Cl)cc2)C1=O` [Example 13, 2-(4-(4-chlorophenyl)-3-hydroxy-1-oxo-1H-indene-2-carboxamido)acetic acid]: inhibition was half-maximal at 3.8 nM (IC50). Compared with the last compound, the IC50 is about 5.4-fold lower.

On to `O=C(O)CNC(=O)C1=C(O)c2c(cccc2-c2ccccc2)C1=O` [Example 9, 2-(3-hydroxy-1-oxo-7-phenyl-1H-indene-2-carboxamido)acetic acid], for which half-maximal inhibition (IC50) required 2.8 nM.

The compound `O=C(O)CNC(=O)C1=C(O)c2cc(F)ccc2C1=O` [Example 6, 2-(6-fluoro-3-hydroxy-1-oxo-1H-indene-2-carboxamido)acetic acid] yielded an IC50 of 50.1 nM.

`O=C(O)CNC(=O)C1=C(O)c2c(cccc2-c2cccc(Cl)c2)C1=O` [Example 14, 2-(4-(3-chlorophenyl)-3-hydroxy-1-oxo-1H-indene-2-carboxamido)acetic acid] showed an IC50 of 3 nM.

`O=C(O)CNC(=O)C1=C(O)c2c(F)cccc2C1=O` [Example 7] displayed an IC50 of 25.5 nM.

In turn, `COc1ccc(-c2cccc3c2C(O)=C(C(=O)NCC(=O)O)C3=O)cc1` [Example 11, 2-(3-hydroxy-4-(4-methoxyphenyl)-1-oxo-1H-indene-2-carboxamido)acetic acid] displayed an IC50 of 3.6 nM.

`O=C(O)CNC(=O)C1=C(O)c2c(I)cccc2C1=O` [Example 1, 2-(3-hydroxy-4-iodo-1-oxo-1H-indene-2-carboxamido)acetic acid]: the IC50 amounted to 22.5 nM. Compared with the last compound, the IC50 is about 6.2-fold higher.

Compound `COc1cccc(-c2ccc3c(c2)C(=O)C(C(=O)NCC(=O)O)=C3O)c1` [Example 19, 2-(3-hydroxy-6-(3-methoxyphenyl)-1-oxo-1H-indene-2-carboxamido)acetic acid] came in with a 50% inhibitory concentration (IC50) of 5.5 nM. This IC50 is about 4.1-fold lower than that of the compound before.

The record behind these values is patent US7569726B2, “Indanone derivatives that inhibit prolyl hydroxylase” (Amgen Inc., priority 2007, dated 2009).
